Measured values reported in patent US9783530B2, “Factor Xla inhibitors” (Merck Sharp & Dohme Corp., priority 2014, dated 2017).

target: purified human Factor XIa (Homo sapiens (Human), UniProt P03951); experiment: Factor XIa Assay; type: biochemical; conditions: purified human Factor XIa 40 pM, substrate Z-Gly-Pro-Arg-AFC, pH 7.4; read-out: FXIa IC50
Protocol: The effectiveness of a compound of the present invention as an inhibitor of Coagulation Factor XIa can be determined using a relevant purified serine protease, and an appropriate synthetic substrate. The rate of hydrolysis of the chromogenic or fluorogenic substrate by the relevant serine protease was measured both in the absence and presence of compounds of the present invention. Assays were conducted at room temperature or at 37° C. […] A decrease in the rate of fluorescence change in the presence of inhibitor is indicative of enzyme inhibition. Such methods are known to one skilled in the art. […]
Factor XIa determinations were made in 50 mM HEPES buffer at pH 7.4 containing 150 mM NaCl, 5 mM CaCl2, and 0.1% PEG 8000 (polyethylene glycol; JT Baker or Fisher Scientific). Determinations were made using purified human Factor XIa at a final concentration of 40 pM (Sekisui Diagnostics) and he synthetic substrate, Z-Gly-Pro-Arg-AFC, TFA salt (Sigma #C0980) at a concentration of 100 µM.
Activity assays were performed by diluting a stock solution of substrate at least tenfold to a final concentration ≦0.1 Km into a solution containing enzyme or enzyme equilibrated with inhibitor. Times required to achieve equilibration between enzyme and inhibitor were determined in control experiments. Initial velocities of product formation in the absence (Vo) or presence of inhibitor (Vi) were measured. Assuming competitive inhibition, and that unity is negligible compared Km/[S], [I]/e, and [I]/e (where [S], [I], and e respectively represent the total concentrations, of substrate, inhibitor and enzyme), the equilibrium constant (Ki) for dissociation of the inhibitor from the enzyme can be obtained from the dependence of Vo/Vi on [I] shown in the following equation.

purified human Factor XIa, sequence (P03951 388-625): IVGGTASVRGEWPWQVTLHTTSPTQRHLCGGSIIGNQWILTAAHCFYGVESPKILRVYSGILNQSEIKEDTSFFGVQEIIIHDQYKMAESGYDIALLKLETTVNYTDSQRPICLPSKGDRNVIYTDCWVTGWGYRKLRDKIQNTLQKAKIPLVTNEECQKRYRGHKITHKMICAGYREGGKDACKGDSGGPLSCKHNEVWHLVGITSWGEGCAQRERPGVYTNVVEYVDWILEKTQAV
purified human Factor XIa, sequence (P03951 19-387 partner): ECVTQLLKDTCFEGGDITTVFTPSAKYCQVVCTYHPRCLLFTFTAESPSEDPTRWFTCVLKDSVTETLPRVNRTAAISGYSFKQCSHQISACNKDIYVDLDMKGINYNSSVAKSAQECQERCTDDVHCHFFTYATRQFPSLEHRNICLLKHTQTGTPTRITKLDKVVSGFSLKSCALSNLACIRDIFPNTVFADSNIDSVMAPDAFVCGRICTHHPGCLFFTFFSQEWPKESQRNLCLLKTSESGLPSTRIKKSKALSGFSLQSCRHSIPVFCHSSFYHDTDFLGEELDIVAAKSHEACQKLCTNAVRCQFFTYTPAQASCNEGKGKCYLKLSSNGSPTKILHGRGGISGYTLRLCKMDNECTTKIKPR

IC50 [nM]	SMILES
0.52	O=C(O)c1ccc(NC(=O)[C@H](Cc2ccccc2)c2ccc(-c3cc(Cl)ccc3-c3cnco3)c[n+]2[O-])cc1 [Example 21, 4-{[(2R)-2-{5-[5-chloro-2-(1,3-oxazol-5-yl)phenyl]-1-oxidopyridin-2-yl}-3-phenylpropanoyl]amino} benzoic acid]
134	O=C(O)c1ccc(NC(=O)C(CC2CC2)c2ccc(-c3c(F)ccc(Cl)c3F)c[n+]2[O-])cc1 (racemic) [Example 33, 4-({2-[5-(3-chloro-2,6-difluorophenyl)-1-oxidopyridin-2-yl]-3-cyclopropylpropanoyl}amino)benzoic acid]
443	O=C(O)c1ccc(NC(=O)C(CC2CC2)c2ccc(-c3cc(Cl)ccc3-c3cnco3)c[n+]2[O-])cc1 (single isomer, unassigned) [Example 34, 4-[(2-{5-[5-chloro-2-(1,3-oxazol-5-yl)phenyl]-1-oxidopyridin-2-yl}-3-cyclopropylpropanoyl)amino]benzoic acid]
94.5	Cc1cc(NC(=O)C(CC2CC2)c2ccc(-c3cc(Cl)ccc3-c3cnco3)c[n+]2[O-])ccc1C(=O)O (racemic) [Example 36, 4-[(2-{5-[5-chloro-2-(1,3-oxazol-5-yl)phenyl]-1-oxidopyridin-2-yl}-3-cyclopropylpropanoyl)amino]-2-methyl-benzoic acid]
2510	O=C(O)c1ccc(NC(=O)C(O)c2ccc(-c3cc(Cl)ccc3C3CC3)c[n+]2[O-])cc1 (racemic) [Example 11, 4-({[5-(5-chloro-2-cyclopropylphenyl)-1-oxidopyridin-2-yl](hydroxy)acetyl}amino)benzoic acid]
228	Cc1cc(NC(=O)C(CC2CC2)c2ccc(-c3cc(Cl)ccc3CN)c[n+]2[O-])ccc1C(=O)O (racemic) [Example 37, 4-[(2-{5-[2-(aminomethyl)-5-chlorophenyl]-1-oxidopyridin-2-yl}-3-cyclopropylpropanoyl)amino]-2-methylbenzoic acid]
10000	O=C(NC12CCC(C(=O)O)(CC1)CC2)C(Cc1ccccc1)c1ccc(-c2c(F)ccc(Cl)c2F)c[n+]1[O-] (single isomer, unassigned) [Example 16, 4-({2-[5-(3-chloro-2,6-difluorophenyl)-1-oxidopyridin-2-yl]-3-phenylpropanoyl}amino) bicyclo[2.2.2]octane-1-carboxylic acid]

Further lines, the compound ahead of its results:

SMILES	IC50 [nM]
Cc1c(-c2c(F)ccc(Cl)c2F)ccc(C(Cc2ccccc2)C(=O)Nc2ccc(C(=O)O)cc2)[n+]1[O-] (stereo not shown) [Example 26, 6-(1-((4-carboxyphenyl)amino)-1-oxo-3-phenylpropan-2-yl)-3-(3-chloro-2,6-difluorophenyl)-2-methylpyridine 1-oxide]	693
COC(=O)NC12CCC(NC(=O)C(Cc3ccccc3)c3ccc(-c4cc(Cl)ccc4-n4cnnn4)c[n+]3[O-])(CC1)CC2 (single isomer, unassigned) [Example 20, methyl {4-[(2-{5-[5-chloro-2-(1H-tetrazol-1-yl)phenyl]-1-oxidopyridin-2-yl}-3-phenylpropanoyl)amino]bicyclo[2.2.2]oct-1-yl}carbamate]	1000
O=C(O)c1ccc(NC(=O)[C@@H](Cc2ccccc2)c2ccc(-c3cc(Cl)ccc3-c3cnco3)c[n+]2[O-])cc1 [Example 22, 4-{[(2S)-2-{5-[5-chloro-2-(1,3-oxazol-5-yl)phenyl]-1-oxidopyridin-2-yl}-3-phenylpropanoyl]amino} benzoic acid]	364
O=C(O)c1ccc(NC(=O)C(CC2CC2)c2ccc(-c3cc(Cl)ccc3OC(F)(F)F)c[n+]2[O-])cc1 (single isomer, unassigned) [Example 38, 4-[(2-{5-[5-chloro-2-(trifluoromethoxy)phenyl]-1-oxidopyridin-2-yl}-3-cyclopropylpropanoyl)amino]benzoic acid]	1000
O=C(O)c1ccc(NC(=O)C(CC2CC2)c2ccc(-c3cc(Cl)ccc3-n3cnnn3)c[n+]2[O-])c(Cl)c1 (single isomer, unassigned) [Example 31, 3-chloro-4-[(2-{5-[5-chloro-2-(1H-tetrazol-1-yl)phenyl]-1-oxidopyridin-2-yl}-3-cyclopropylpropanoyl)amino]benzoic acid]	752
O=C(Cc1ccc(-c2cc(Cl)ccc2OC(F)F)c[n+]1[O-])Nc1ccc(C(=O)O)cc1 [Example 12, 4-[({5-[5-chloro-2-(difluoromethoxy)phenyl]-1-oxidopyridin-2-yl}acetyl)amino] benzoic acid]	711
Cc1cc(NC(=O)C(CC2CC2)c2ccc(-c3cc(Cl)ccc3-n3cnnn3)c[n+]2[O-])ccc1C(=O)O (single isomer, unassigned) [Example 49, 4-[(2-{5-[5-chloro-2-(1H-tetrazol-1-yl)phenyl]-1-oxidopyridin-2-yl}-3-cyclopropylpropanoyl)amino]-2-methylbenzoic acid]	57
O=C(NC12CCC(C(=O)O)(CC1)CC2)C(Cc1ccccc1)c1ccc(-c2cc(Cl)ccc2-n2cnnn2)c[n+]1[O-] (single isomer, unassigned) [Example 18, 4-[(2-{5-[5-chloro-2-(1H-tetrazol-1-yl)phenyl]-1-oxidopyridin-2-yl}-3-phenylpropanoyl)amino] bicyclo[2.2.2]octane-1-carboxylic acid]	271
O=C(Cc1ccc(-c2cc(Cl)ccc2C2CC2)c[n+]1[O-])Nc1ccc(C(=O)O)cc1 [Example 10, 4-({[5-(5-chloro-2-cyclopropylphenyl)-1-oxidopyridin-2-yl]acetyl}amino) benzoic acid]	2190
O=C(O)c1ccc(NC(=O)C(CC2CC2)c2ccc(-c3cc(Cl)ccc3-c3nccs3)c[n+]2[O-])cc1 (racemic) [Example 43, 4-[(2-{5-[5-chloro-2-(1,3-thiazol-2-yl)phenyl]-1-oxidopyridin-2-yl}-3-cyclopropylpropanoyl)amino]benzoic acid]	53.6
Cc1cc(C(=O)O)ccc1NC(=O)C(CC1CC1)c1ccc(-c2cc(Cl)ccc2-n2cnnn2)c[n+]1[O-] (single isomer, unassigned) [Example 46, 4-[(2-{5-[5-chloro-2-(1H-tetrazol-1-yl)phenyl]-1-oxidopyridin-2-yl}-3-cyclopropylpropanoyl)amino]-3-methylbenzoic acid]	1000
O=C(Cc1ccc(-c2cc(Cl)ccc2C(F)F)c[n+]1[O-])Nc1ccc(C(=O)O)cc1 [Example 13, 4-[({5-[5-chloro-2-(difluoromethyl)phenyl]-1-oxidopyridin-2-yl}acetyl)amino] benzoic acid]	388
O=C(O)c1ccc(NC(=O)[C@@H](Cc2ccccc2)c2ccc(-c3c(F)ccc(Cl)c3F)c[n+]2[O-])cc1 [Example 3, 4-({(2S)-2-[5-(3-chloro-2,6-difluorophenyl)-1-oxidopyridin-2-yl]-3-phenylpropanoyl}amino) benzoic acid]	825
N#Cc1ccc(Cl)c(F)c1-c1ccc(C(CC2CC2)C(=O)Nc2ccc(C(=O)O)cc2)[n+]([O-])c1 (single isomer, unassigned) [Example 29, 4-({2-[5-(3-chloro-6-cyano-2-fluorophenyl)-1-oxidopyridin-2-yl]-3-cyclopropylpropanoyl}amino)benzoic acid]	458

target: purified Human plasma kallikrein (Homo sapiens (Human), UniProt P03952); experiment: Kallikrein Assay; type: biochemical; conditions: purified Human plasma kallikrein 0.5 nM, substrate Acetyl-K-P-R-AFC, pH 7.4; read-out: P. KLK IC50
Protocol: The effectiveness of a compound of the present invention as an inhibitor of Kallikrein can be determined using a relevant purified serine protease, and an appropriate synthetic substrate. The rate of hydrolysis of the chromogenic or fluorogenic substrate by the relevant serine protease was measured both in the absence and presence of compounds of the present invention. Assays were conducted at room temperature or at 37° C. […] A decrease in the rate of fluorescence change in the presence of inhibitor is indicative of enzyme inhibition. Such methods are known to one skilled in the art. The results of this assay are expressed as the inhibitory constant, Ki.
Kallikrein determinations were made in 50 mM HEPES buffer at pH 7.4 containing 150 mM NaCl, 5 mM CaCl2, and 0.1% PEG 8000 (polyethylene glycol; Fisher Scientific). Determinations were made using purified Human plasma kallikrein at a final concentration of 0.5 nM (Enzyme Research Laboratories) and the synthetic substrate, Acetyl-K-P-R-AFC (Sigma # C6608) at a concentration of […].
Activity assays were performed by diluting a stock solution of substrate at least tenfold to a final concentration ≦0.2 Km into a solution containing enzyme or enzyme equilibrated with inhibitor. Times required to achieve equilibration between enzyme and inhibitor were determined in control experiments. The reactions were performed under linear progress curve conditions and fluorescence increase measured at 405 Ex/510 Em nm. Values were converted to percent inhibition of the control reaction (after subtracting 100% Inhibition value). IC50 was determined by inflection point from a four parameter logistic curve fit. Ki was calculated using the Cheng Prusoff equation, Ki=IC50/(1+([S]/Km)).

purified Human plasma kallikrein, sequence (P03952 391-638): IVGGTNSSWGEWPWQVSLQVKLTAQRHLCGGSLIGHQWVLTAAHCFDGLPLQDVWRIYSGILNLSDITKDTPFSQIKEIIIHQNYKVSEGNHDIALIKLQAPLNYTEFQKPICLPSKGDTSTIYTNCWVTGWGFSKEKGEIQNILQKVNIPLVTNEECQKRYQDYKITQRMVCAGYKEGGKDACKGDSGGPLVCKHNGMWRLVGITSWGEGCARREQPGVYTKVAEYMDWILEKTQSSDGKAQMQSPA
purified Human plasma kallikrein, sequence (P03952 20-390 partner): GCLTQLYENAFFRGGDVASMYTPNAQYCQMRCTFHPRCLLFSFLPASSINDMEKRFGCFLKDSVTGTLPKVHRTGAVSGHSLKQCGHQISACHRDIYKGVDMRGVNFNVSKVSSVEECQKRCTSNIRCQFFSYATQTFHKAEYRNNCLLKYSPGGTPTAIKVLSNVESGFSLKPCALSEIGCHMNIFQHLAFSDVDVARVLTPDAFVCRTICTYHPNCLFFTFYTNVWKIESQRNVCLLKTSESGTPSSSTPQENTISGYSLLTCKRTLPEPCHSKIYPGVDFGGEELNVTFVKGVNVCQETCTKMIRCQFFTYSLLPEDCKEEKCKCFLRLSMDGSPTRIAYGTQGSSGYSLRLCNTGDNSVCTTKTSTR

IC50 [nM]	SMILES
85.6	O=C(O)c1ccc(NC(=O)C(CC2CC2)c2ccc(-c3cc(Cl)ccc3-n3cc(C(F)F)nn3)c[n+]2[O-])cc1 (single isomer, unassigned) [Example 52, 4-{[2-(5-{5-chloro-2-[4-(difluoromethyl)-1H-1,2,3-triazol-1-yl]phenyl}-1-oxidopyridin-2-yl)-3-cyclopropylpropanoyl]amino}benzoic acid]
